Source: patent US12692249B2, “WDR5 inhibitors and modulators” (Vanderbilt University, priority 2019, dated 2026)
Read-outs that look alike come from different tables or passages of the source.

Experiments:
[1] = system: MV4:11 human cancer cell lines; assay: Cellular viability / anti-proliferative assay, CellTiter-Glo, 5 day protocol; type: cell-based; conditions: Homo sapiens, MV4-11, 120 h, read-out: GI50 on cellular proliferation of MV4:11 human cancer cell lines
Method in brief: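 Luminescent ATP-based viability (CellTiter-Glo) after a 5-day exposure gave GI50 via sigmoidal fitting, averaged over two or more replicates. Compounds spanned 22 two-fold steps down from 30 μM at 0.3% DMSO, on 200 MV-4-11 cells per well grown in IMDM plus 10% FBS.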

WDR5 = WDR5 (Homo sapiens, UniProt P61964); assay: TR-FRET competition binding assay, displacement of 10mer-Thr-FAM MLL peptide probe from His-tagged WDR5; conditions: WDR5-His tag (residues 24-334) 2 nM; 10mer-Thr-FAM 150 nM; 60 min, room temperature; read-out: Ki for Inhibition of WDR5 by TR-FRET assay
[2] = MV4:11 cells, 5 day incubation, CellTiter-Glo, mean of at least two replicates

| GI50 [1, 2] [nM] | Ki (WDR5) [nM] | Structure (SMILES) | GI50 [1] [nM] |
| --- | --- | --- | --- |
| < 20 | 0.02 | COc1cnc2cc(C)cc(N3CCc4c(cc(Cn5ccnc5)cc4-c4cn(C)nc4C(F)(F)F)C3=O)c2c1 [Example 202, 7-((1H-Imidazol-1-yl)methyl)-2-(3-methoxy-7-methylquinolin-5-yl)-5-(1-methyl-3-(trifluoromethyl)-1H-pyrazol-4-yl)-3,4-dihydroisoquinolin-1(2H)-one] |  |
| 49 | 0.025 | Cc1cc(N2CCc3c(cc(Cn4ccnc4)cc3-c3cn(C)nc3C(F)(F)F)C2=O)c2cc(N3CC(F)C3)cc(C#N)c2n1 [Example 203, 4-(7-((1H-Imidazol-1-yl)methyl)-5-(1-methyl-3-(trifluoromethyl)-1H-pyrazol-4-yl)-1-oxo-3,4-dihydroisoquinolin-2(1H)-yl)-6-(3-fluoroazetidin-1-yl)-2-methylquinoline-8-carbonitrile] |  |
| 22 | < 0.02 | CCc1cc(C#N)c2nccc(N3CCc4c(cc(Cn5ccnc5)cc4-c4cn(C)nc4C(F)(F)F)C3=O)c2c1 [Example 204, 4-(7-((1H-Imidazol-1-yl)methyl)-5-(1-methyl-3-(trifluoromethyl)-1H-pyrazol-4-yl)-1-oxo-3,4-dihydroisoquinolin-2(1H)-yl)-6-ethylquinoline-8-carbonitrile] |  |
| 43 | 0.022 | COc1cnc2c(C)ccc(N3CCc4c(cc(Cn5ccnc5)cc4-c4cn(C)nc4C(F)(F)F)C3=O)c2c1 [Example 206, 7-((1H-Imidazol-1-yl)methyl)-2-(3-methoxy-8-methylquinolin-5-yl)-5-(1-methyl-3-(trifluoromethyl)-1H-pyrazol-4-yl)-3,4-dihydroisoquinolin-1(2H)-one] |  |
| < 20 | < 0.02 | CCc1cc2c(N3CCc4c(cc(Cn5ccnc5)cc4-c4cn(C)nc4C(F)(F)F)C3=O)ccnc2c(OC)n1 [Example 207, 7-((1H-Imidazol-1-yl)methyl)-2-(6-ethyl-8-methoxy-1,7-naphthyridin-4-yl)-5-(1-methyl-3-(trifluoromethyl)-1H-pyrazol-4-yl)-3,4-dihydroisoquinolin-1(2H)-one] |  |
| 55 | < 0.02 | CCc1cc(N2CCn3cnnc3C2)c2nccc(N3CCc4c(cc(Cn5ccnc5)cc4-c4cn(C)nc4C(F)(F)F)C3=O)c2c1 [Example 208, 7-((1H-Imidazol-1-yl)methyl)-2-(8-(5,6-dihydro-[1,2,4]triazolo[4,3-a]pyrazin-7(8H)-yl)-6-ethylquinolin-4-yl)-5-(1-methyl-3-(trifluoromethyl)-1H-pyrazol-4-yl)-3,4-dihydroisoquinolin-1(2H)-one] |  |
| < 20 | < 0.02 | CCc1cc(C(=O)NCCNC(=O)c2cnccn2)c2nccc(N3CCc4c(cc(Cn5ccnc5)cc4-c4cn(C)nc4C(F)(F)F)C3=O)c2c1 [Example 209, 4-(7-((1H-Imidazol-1-yl)methyl)-5-(1-methyl-3-(trifluoromethyl)-1H-pyrazol-4-yl)-1-oxo-3,4-dihydroisoquinolin-2(1H)-yl)-6-ethyl-N-(2-(pyrazine-2-carboxamido)ethyl)quinoline-8-carboxamide] |  |
| 20 | < 0.02 | CCc1cnc2cncc(N3CCc4c(cc(Cn5ccnc5)cc4-c4cn(C)nc4C(F)(F)F)C3=O)c2c1 [Example 211, 7-((1H-imidazol-1-yl)methyl)-2-(3-ethyl-1,7-naphthyridin-5-yl)-5-(1-methyl-3-(trifluoromethyl)-1H-pyrazol-4-yl)-3,4-dihydroisoquinolin-1(2H)-one] |  |
| 35 | < 0.02 | CCc1cc(C(=O)NCCNC(C)=O)c2nccc(N3CCc4c(cc(Cn5ccnc5)cc4-c4cn(C)nc4C(F)(F)F)C3=O)c2c1 [Example 212, 4-(7-((1H-Imidazol-1-yl)methyl)-5-(1-methyl-3-(trifluoromethyl)-1H-pyrazol-4-yl)-1-oxo-3,4-dihydroisoquinolin-2(1H)-yl)-N-(2-acetamidoethyl)-6-ethylquinoline-8-carboxamide] |  |
| < 20 | < 0.02 | CCc1cc(C(=O)NCCNC(=O)c2ccncc2)c2nccc(N3CCc4c(cc(Cn5ccnc5)cc4-c4cn(C)nc4C(F)(F)F)C3=O)c2c1 [Example 213, 4-(7-((1H-imidazol-1-yl)methyl)-5-(1-methyl-3-(trifluoromethyl)-1H-pyrazol-4-yl)-1-oxo-3,4-dihydroisoquinolin-2(1H)-yl)-6-ethyl-N-(2-(isonicotinamido)ethyl)quinoline-8-carboxamide] |  |
| < 20 | < 0.02 | COc1cnc2cncc(N3CCc4c(cc(Cn5ccnc5)cc4-c4cn(C)nc4C(F)(F)F)C3=O)c2c1 [Example 214, 7-((1H-imidazol-1-yl)methyl)-2-(3-methoxy-1,7-naphthyridin-5-yl)-5-(1-methyl-3-(trifluoromethyl)-1H-pyrazol-4-yl)-3,4-dihydroisoquinolin-1(2H)-one] |  |
| < 20 | < 0.02 | CCc1cc(C(=O)NCCNC(=O)c2cscn2)c2nccc(N3CCc4c(cc(Cn5ccnc5)cc4-c4cn(C)nc4C(F)(F)F)C3=O)c2c1 [Example 216, N-(2-(4-(7-((1H-Imidazol-1-yl)methyl)-5-(1-methyl-3-(trifluoromethyl)-1H-pyrazol-4-yl)-1-oxo-3,4-dihydroisoquinolin-2(1H)-yl)-6-ethylquinoline-8-carboxamido)ethyl)thiazole-4-carboxamide] |  |
| 21 | < 0.02 | CCc1cc(C(=O)NCC2CN(C(C)=O)C2)c2nccc(N3CCc4c(cc(Cn5ccnc5)cc4-c4cn(C)nc4C(F)(F)F)C3=O)c2c1 [Example 218, 4-(7-((1H-Imidazol-1-yl)methyl)-5-(1-methyl-3-(trifluoromethyl)-1H-pyrazol-4-yl)-1-oxo-3,4-dihydroisoquinolin-2(1H)-yl)-N-((1-acetylazetidin-3-yl)methyl)-6-ethylquinoline-8-carboxamide] |  |
| < 20 | < 0.02 | CCc1cc(C(=O)NCC2CN(C(=O)c3ccncc3)C2)c2nccc(N3CCc4c(cc(Cn5ccnc5)cc4-c4cn(C)nc4C(F)(F)F)C3=O)c2c1 [Example 219, 4-(7-((1H-Imidazol-1-yl)methyl)-5-(1-methyl-3-(trifluoromethyl)-1H-pyrazol-4-yl)-1-oxo-3,4-dihydroisoquinolin-2(1H)-yl)-6-ethyl-N-((1-isonicotinoylazetidin-3-yl)methyl)quinoline-8-carboxamide] |  |
| < 20 | < 0.02 | CCc1cc(C(=O)NCC2CN(C(=O)c3cscn3)C2)c2nccc(N3CCc4c(cc(Cn5ccnc5)cc4-c4cn(C)nc4C(F)(F)F)C3=O)c2c1 [Example 220, 4-(7-((1H-Imidazol-1-yl)methyl)-5-(1-methyl-3-(trifluoromethyl)-1H-pyrazol-4-yl)-1-oxo-3,4-dihydroisoquinolin-2(1H)-yl)-6-ethyl-N-((1-(thiazole-4-carbonyl)azetidin-3-yl)methyl)quinoline-8-carboxamide] |  |
| < 20 | 0.024 | COc1cnc2cc(C)cc(N3CCc4c(cc(Cn5ccnc5N)cc4-c4cn(C)nc4C(F)(F)F)C3=O)c2c1 [Example 221, 7-((2-Amino-1H-imidazol-1-yl)methyl)-2-(3-methoxy-7-methylquinolin-5-yl)-5-(1-methyl-3-(trifluoromethyl)-1H-pyrazol-4-yl)-3,4-dihydroisoquinolin-1(2H)-one] |  |
| < 20 | < 0.02 | CCc1cc(C(=O)NC2CN(C(=O)C3CCOCC3)C2)c2nccc(N3CCc4c(cc(Cn5ccnc5)cc4-c4cn(C)nc4C(F)(F)F)C3=O)c2c1 [Example 223, 4-(7-((1H-Imidazol-1-yl)methyl)-5-(1-methyl-3-(trifluoromethyl)-1H-pyrazol-4-yl)-1-oxo-3,4-dihydroisoquinolin-2(1H)-yl)-6-ethyl-N-(1-(tetrahydro-2H-pyran-4-carbonyl)azetidin-3-yl)quinoline-8-carboxamide] |  |
| < 20 | < 0.02 | CCc1cc(C(=O)NC2CN(C(=O)c3cscn3)C2)c2nccc(N3CCc4c(cc(Cn5ccnc5)cc4-c4cn(C)nc4C(F)(F)F)C3=O)c2c1 [Example 228, 4-(7-((1H-Imidazol-1-yl)methyl)-5-(1-methyl-3-(trifluoromethyl)-1H-pyrazol-4-yl)-1-oxo-3,4-dihydroisoquinolin-2(1H)-yl)-6-ethyl-N-(1-(thiazole-4-carbonyl)azetidin-3-yl)quinoline-8-carboxamide] |  |
| 38 | < 0.02 | CCc1cc(-c2cnn(C)c2)c2nccc(N3CCc4c(cc(Cn5ccnc5)cc4-c4cn(C)nc4C(F)(F)F)C3=O)c2c1 [Example 232, 7-((1H-Imidazol-1-yl)methyl)-2-(6-ethyl-8-(1-methyl-1H-pyrazol-4-yl)quinolin-4-yl)-5-(1-methyl-3-(trifluoromethyl)-1H-pyrazol-4-yl)-3,4-dihydroisoquinolin-1(2H)-one] |  |
| 26 | < 0.02 | CCc1cc(C(=O)NCC2CN(C(=O)C3CCOCC3)C2)c2nccc(N3CCc4c(cc(Cn5ccnc5)cc4-c4cn(C)nc4C(F)(F)F)C3=O)c2c1 [Example 233, 4-(7-((1H-Imidazol-1-yl)methyl)-5-(1-methyl-3-(trifluoromethyl)-1H-pyrazol-4-yl)-1-oxo-3,4-dihydroisoquinolin-2(1H)-yl)-6-ethyl-N-((1-(tetrahydro-2H-pyran-4-carbonyl)azetidin-3-yl)methyl)quinoline-8-carboxamide] |  |

| Structure (SMILES) | GI50 [1, 2] [nM] | Ki (WDR5) [nM] | GI50 [1] [nM] |
| --- | --- | --- | --- |
| CCc1cc(N)c2nccc(N3CCc4c(cc(Cn5ccnc5)cc4-c4cn(C)nc4C(F)(F)F)C3=O)c2c1 [Example 230, 7-((1H-Imidazol-1-yl)methyl)-2-(8-amino-6-ethylquinolin-4-yl)-5-(1-methyl-3-(trifluoromethyl)-1H-pyrazol-4-yl)-3,4-dihydroisoquinolin-1(2H)-one] |  | < 0.02 | 54 |
